Literature values, collected in patent US9226944B2, “Herbal preparation for sleep apnea relief” (priority 2008, dated 2016).

Details: combined with the plant vs freed from the other constituents; heat accelerates decomposition

For `CN1C(CC(=O)c2ccccc2)CCCC1CC(O)c1ccccc1` (stereo not shown) [Lobeline, 2-[6-(2-hydroxy-2-phenyl-ethyl)-1-methyl-2-piperidyl]-1-phenyl-ethanone], the stability of lobeline is given as “decomposes when freed from contact with the other constituents of the plant”.
